Key:
[1] = in vitro; settings: human, microsomes
[2] = target: HIV-1NL4-3 capsid protein (CA hexamer); test: SPR binding to CA hexamer; settings: hexamer versus monomer
[3] = Human plasma stability assay; type: in vitro ADME
[4] = test system: NL4-3 Env pseudo-typed HIV-I virus; test: ELISA-based quantification of capsid; type: cell-based, HIV-1; settings: 10 μM compound, compared to the DMSO control
[5] = test system: HIV-1 NL4-3 virus; test: In vitro anti-HIV assay in TZM-bl cells; type: cell-based
[6] = target: HIV-1 CA (Human immunodeficiency virus type 1 group M subtype B, UniProt P12493); test: In vitro capsid assembly assay; type: biochemical; settings: capsid 30 μM, compound 50 μM, 3M NaCl, compared to DMSO control

C[C@]12CC[C@H]3[C@@H](CCC4=CC(=O)CC[C@@]43C)[C@@H]1CC[C@@H]2O [Testosterone]
CLint scaled at 1 h [1]: 169 mL/min/kg | Remaining (T=60min) (HLM 0.5 mg protein/mL): 3.6% | Remaining (NCF=60min) (HLM, no cofactor (no NADPH regenerating system)): 74.4%

COc1ccc(N(C)C(=O)[C@H](Cc2ccccc2)NC(=O)Cn2cc(-c3ccccc3NC(=O)c3ccccc3F)nn2)cc1 [6a-9, (S)-2-fluoro-N-(2-(1-(2-((1-((4-methoxyphenyl)(methyl)amino)-1-oxo-3-phenylpropan-2-yl)amino)-2-oxoethyl)-1H-1,2,3-triazol-4-yl)phenyl)benzamide]
CLint scaled at 1 h [1]: 1400 mL/min/kg | difference in KD values for hexameric and monomeric CA [2]: no significant differences | remaining at 0 h [3]: 100% | reduction of p24 of the produced virus [4]: about 15%

COc1ccc(N(C)C(=O)[C@H](Cc2ccccc2)NC(=O)Cn2cc(-c3cccc(NC(=O)c4cccc(F)c4)c3)nn2)cc1 [6b-10, (S)-3-fluoro-N-(3-(1-(2-((1-((4-methoxyphenyl)(methyl)amino)-1-oxo-3-phenylpropan-2-yl)amino)-2-oxoethyl)-1H-1,2,3-triazol-4-yl)phenyl)benzamide]
fold better active ([5]; EC50 with respect to 6b-2): 1.3 fold

Cc1[nH]c2ccccc2c1CC(=O)N[C@@H](Cc1ccccc1)C(=O)N(C)c1ccccc1 [PF-74]
CLint scaled at 1 h [1]: 2160 mL/min/kg | effect on in vitro assembly of HIV-1 CA [6]: accelerated the assembly of HIV-1 CA

CC(C)[N+](C)(CCOC(=O)C1c2ccccc2Oc2ccccc21)C(C)C [Propantheline bromide, reference compound]
remaining at 0 h [3]: 100%

COc1ccc(N(C)C(=O)[C@H](Cc2ccccc2)NC(=O)Cn2cc(-c3ccccc3NC(=O)c3cccc(F)c3)nn2)cc1 [6a-10, (S)-3-fluoro-N-(2-(1-(2-((1-((4-methoxyphenyl)(methyl)amino)-1-oxo-3-phenylpropan-2-yl)amino)-2-oxoethyl)-1H-1,2,3-triazol-4-yl)phenyl)benzamide]
difference in KD values for hexameric and monomeric CA [2]: no significant differences

COc1ccc(N(C)C(=O)[C@H](Cc2ccccc2)NC(=O)Cn2cc(-c3ccccc3NC(=O)c3cccc(OC)c3)nn2)cc1 [6a-5, (S)-3-methoxy-N-(2-(1-(2-((1-((4-methoxyphenyl)(methyl)amino)-1-oxo-3-phenylpropan-2-yl)amino)-2-oxoethyl)-1H-1,2,3-triazol-4-yl)phenyl)benzamide]
fold decrease in antiviral activity ([5]; EC50 relative to 6a-2): 3.4 fold

COc1ccc(C(=O)Nc2ccccc2-c2cn(CC(=O)N[C@@H](Cc3ccccc3)C(=O)N(C)c3ccc(OC)cc3)nn2)cc1 [6a-6, (S)-4-methoxy-N-(2-(1-(2-((1-((4-methoxyphenyl)(methyl)amino)-1-oxo-3-phenylpropan-2-yl)amino)-2-oxoethyl)-1H-1,2,3-triazol-4-yl)phenyl)benzamide]
EC50 ([5]; Human immunodeficiency virus 1, NL43, TZM-bl): > 16.2 µM

COc1ccc(N(C)C(=O)[C@H](Cc2ccccc2)NC(=O)Cn2cc(-c3cccc(NC(C)=O)c3)nn2)cc1 [6b-1, (S)-2-(2-(4-(3-acetamidophenyl)-1H-1,2,3-triazol-1-yl)acetamido)-N-(4-methoxyphenyl)-N-methyl-3-phenylpropanamide]
fold decrease in antiviral activity ([5]; EC50 relative to 5b): 4.5 fold

COc1ccc(N(C)C(=O)[C@H](Cc2ccccc2)NC(=O)Cn2cc(-c3cccc(NC(=O)c4ccccc4)c3)nn2)cc1 [6b-2, (S)-N-(3-(1-(2-((1-((4-methoxyphenyl)(methyl)amino)-1-oxo-3-phenylpropan-2-yl)amino)-2-oxoethyl)-1H-1,2,3-triazol-4-yl)phenyl)benzamide]
fold decrease in antiviral activity ([5]; EC50 relative to 5b): 3.9 fold

COc1ccc(N(C)C(=O)[C@H](Cc2ccccc2)NC(=O)Cn2cc(-c3ccccc3NC(=O)c3ccccc3OC)nn2)cc1 [6a-4, (S)-2-methoxy-N-(2-(1-(2-((1-((4-methoxyphenyl)(methyl)amino)-1-oxo-3-phenylpropan-2-yl)amino)-2-oxoethyl)-1H-1,2,3-triazol-4-yl)phenyl)benzamide]
fold decrease in antiviral activity ([5]; EC50 relative to 6a-2): 2.2 fold

From publication PMC7053825 (European journal of medicinal chemistry, 2020)
